Experimental data reported in PMC12189828, “Substitution of Proline Residues by 4-Fluoro-L-Proline Affects the Mechanism of the Proline-Rich Antimicrobial Peptide Api137” (Antibiotics, 2025).
Values belong to the compound of their own block, whether it stands above or below them. Where a SMILES comes first, the peptide text is derived from it. [ ]: non-standard residue; d: D form. The star is where a group is joined. Orn(α-tetramethylguanidino) = CN(C)C(=N[C@@H](CCCN)C(=O)*)N(C)C; Pro(trans-4-F) = O=C(O)[C@@H]1C[C@@H](F)CN1

How the values were obtained:
E. coli RN31 = assay: Growth inhibition of E. coli RN31 during 90 min exponential growth phase; type: cell-based, Escherichia coli; conditions: E. coli RN31, 33% TSB, peptide 8 µg/mL, 90 min, OD600; two biological replicates (n = 2)
Experimental: The following steps were performed on ice. Cells were harvested by centrifugation (4000× g, 4 °C, 25 min), washed with TICO buffer (20 mmol/L Hepes-KOH, pH 7.6, 6 mmol/L MgAc2, 30 mmol/L KAc), centrifuged (4000× g, 25 min, 4 °C), and stored at −80 °C. The cell pellet was suspended in TICO buffer (500 µL) and mixed with silica beads (zirconium glass pellets, 100 µm diameter; Carl Roth; Karlsruhe, Germany) to lyse the cells on a FastPrep-24^TM 5G (MP Biomedicals, Solon, OH, USA) using three disruption cycles (30 s, 6.0 m/s) interrupted by 1 min of incubation on ice after each cycle. Cell debris was removed by centrifugation (5000× g, 4 °C, 5 min), the supernatant was transferred to a new reaction tube, centrifuged (20,000× g, 4 °C, 20 min), the absorbance was recorded at 260 nm on a NanoPhotometer® NP80, and the sample was stored at −80 °C. […]

[1] = molecular target: 70S ribosomes isolated from E. coli BW25113 (Escherichia coli, UniProt P60723+P61175); assay: Fluorescence polarization, competition with cf-Api137 for 70S ribosome binding (Ki); conditions: ratio of Ki to the Ki of Api137
Experimental: E. coli BW25113 were cultivated in LB medium and harvested by centrifugation (5000× g, 15 min, 4 °C) at an OD600 of 3–4. Cell pellets were washed in ribosome preparation buffer (20 mmol/L HEPES-KOH, 6 mmol/L MgCl2, 30 mmol/L NH4Cl, pH 7.6, 4 °C), centrifuged (4100× g, 30 min, 4 °C), and resuspended in ribosome preparation buffer (0.5 g/L) containing freshly added 2-mercaptoethanol (4 mmol/L) and lysozyme. Cells were incubated on ice for 30 min and disrupted in six cycles using a FastPrep-24^TM 5G instrument (MP Biomedicals, Eschwege, Germany) with the BigPrep 50 mL setting (40 s, 4.0 m/s), interrupted by one minute of incubation on ice between the cycles. After a centrifugation step (1620× g, 5 min, 4 °C), DNase I (5 U/mL) was added to the supernatant and incubated for 1 h on ice. Cell debris was removed by centrifugation at 16,000× g (30 min, 4 °C) and twice at 32,000× g (60 min, 4 °C). Crude ribosomes were obtained by centrifugation at 165,000× g (17 h, 4 °C). […]
Inhibition constants (Ki) were measured for the 70S ribosome extract using cf-labeled and unlabeled peptides in ribosome preparation buffer. […] Fluorescence polarization was determined on a PARADIGM^TM microplate reader in the top reading position (λex = 485 nm, λem = 535 nm). […] Ki values were calculated as described by Mathias and Jung.

[2] = system: in vitro expression of sfGFP in the presence of RF1; assay: In vitro transcription-translation (iTT) assay of sfGFP in the presence of RF1; type: biochemical; conditions: peptide 5 µmol/L, RF1, 37 °C, 2 h, fluorescence; normalized to absence of PrAMPs; n = 3
Experimental: The sfGFP expression analysis relied on the NEB PureExpress Delta RF123 Kit (New England Biolabs, Frankfurt, Germany). The DNA template encoding sfGFP with a UAG stop codon was amplified from the pY71sfGFP vector by PCR using the primers sfGFP fwd ([…]) and sfGFP rev ([…]). The release factor RF1 of the kit was diluted 50-fold (v/v) in 1× Pure System Buffer (PSB, 1 mol/L magnesium acetate, 0.5 mol/L K3PO4 (pH 7.3), 1 mol/L potassium glutamate, 1 mol/L NH4Cl, 0.5 mol/L CaCl2, 1 mol/L spermidine, 0.1 mol/L putrescine, 0.1 mol/L DTT). sfGFP expression was performed in a freshly prepared mixture of kit solution A (2 µL), kit solution B (1.5 µL), 50-fold diluted RF1 (0.5 µL), sfGFP template (0.1325 pmol, 35 ng) or water as control (0.25 µL), PSB (0.25 µL), and a PrAMP (50 or 0 µmol/L) dissolved in water (0.5 µL). The reaction mixture was transferred to a black 384-well plate (flat bottom, PS, 784900, Greiner Bio-One GmbH), covered with a lid, and incubated (37 °C, 2 h) in a microplate reader (Gemini EM, Molecular Devices, San Jose, CA, USA). Fluorescence was recorded every 10 min (λex = 485 nm, λem = 535 nm).

[3] = system: 50S subunit assembly / 70S ribosome in E. coli RN31; assay: Ribosome profile analysis (RPA), sucrose gradient of E. coli RN31 lysate; type: cell-based, Escherichia coli; conditions: E. coli RN31, 33% TSB, peptide 8 µg/mL, 90 min, 5–25% sucrose gradient; n = 2 (Api137 n = 7)
Experimental: E. coli RN31 was grown in 33% TSB (37 °C, 200 rpm) from a starting OD600 of 0.05 to an OD600 of 0.2, measured on a NanoPhotometer® (NP80; Implen; Westlake Village, CA, USA), and divided into subcultures that were inoculated with a peptide ([…]) before being cultured for 90 min (37 °C, 200 rpm). The following steps were performed on ice. Cells were harvested by centrifugation (4000× g, 4 °C, 25 min), washed with TICO buffer (20 mmol/L Hepes-KOH, pH 7.6, 6 mmol/L MgAc2, 30 mmol/L KAc), centrifuged (4000× g, 25 min, 4 °C), and stored at −80 °C. The cell pellet was suspended in TICO buffer (500 µL) and mixed with silica beads (zirconium glass pellets, 100 µm diameter; Carl Roth; Karlsruhe, Germany) to lyse the cells on a FastPrep-24^TM 5G (MP Biomedicals, Solon, OH, USA) using three disruption cycles (30 s, 6.0 m/s) interrupted by 1 min of incubation on ice after each cycle. Cell debris was removed by centrifugation (5000× g, 4 °C, 5 min), the supernatant was transferred to a new reaction tube, centrifuged (20,000× g, 4 °C, 20 min), the absorbance was recorded at 260 nm on a NanoPhotometer® NP80, and the sample was stored at −80 °C.
A 5% (w/v) sucrose solution (6.5 mL) in TICO buffer containing 2-mercaptoethanol (4 mmol/L) was poured into an open-top centrifuge tube (13.2 mL, 14 × 89 mm, Beckman Coulter) and bottomed with a 25% (w/v) sucrose solution (6.5 mL) in TICO buffer containing 2-mercaptoethanol (4 mmol/L) using a cannula. The tube was sealed with parafilm and placed horizontally at 4 °C for 3 h and vertically at 4 °C for 30 min. A portion of the upper layer (550 µL) was replaced by lysate (500 µL, A260 = 30) and centrifuged using a swing-out rotor (SW 41 Ti, 52,500× g, 4 °C, 19 h) without a brake. The contents were transferred from bottom-up to obtain equal volumes in all wells of a black 96-well plate with a flat bottom (96 Well PP black Greiner Bio-One GmbH, Frickenhausen, Germany) using the Äkta Purifier 10 system, and absorbance was recorded at a wavelength of 254 nm. Fluorescence was measured in the plate using the PARADIGM at excitation (λex) and emission (λem) wavelengths of 485 nm and 535 nm for eGFP and 585 nm and 635 nm, respectively, for mCherry and normalized to the 70S ribosome peak (set to 100%).

[4] = molecular target: 70S ribosome isolated from E. coli BW25113 (E. coli (endogenous in E. coli BW25113)); assay: fluorescence polarisation; competition: 2-fold dilution series (21 steps) of unlabeled peptide (20 uL, 300 umol/L) pre-incubated 90 min with crude 70S ribosome extract (at ~90% of the upper Kd plateau), then cf-Api137 (10 uL, 80 nmol/L) for 90 min; ribosome preparation buffer, 28 +/- 1 C; Ki calculated from IC50
[5] = molecular target: 70S ribosome isolated from E. coli BW25113 (E. coli (endogenous in E. coli BW25113)); assay: fluorescence polarisation; direct titration: 2-fold dilution series (22 steps) of crude 70S ribosome extract, cf-labeled peptide (10 uL, 40 nmol/L) added; ribosome preparation buffer (20 mmol/L HEPES-KOH, 6 mmol/L MgCl2, 30 mmol/L NH4Cl, pH 7.6); 28 +/- 1 C, 90 min

Compound: CC[C@H](C)[C@H](NC(=O)[C@H](Cc1ccc(O)cc1)NC(=O)[C@@H](NC(=O)[C@@H]1CCCN1C(=O)[C@H](CCCNC(=N)N)NC(=O)[C@H](CC(N)=O)NC(=O)[C@H](CC(N)=O)NC(=O)[C@H](CCCN)N=C(N(C)C)N(C)C)C(C)C)C(=O)N1CCC[C@H]1C(=O)N[C@@H](CCCNC(=N)N)C(=O)N1CCC[C@H]1C(=O)N[C@@H](CCCNC(=N)N)C(=O)N1C[C@H](F)C[C@H]1C(=O)N1CCC[C@H]1C(=O)N[C@@H](Cc1c[nH]cn1)C(=O)N1CCC[C@H]1C(=O)N[C@@H](CCCNC(=N)N)C(=O)N[C@@H](CC(C)C)C(=O)O [Api844] ({Orn(α-tetramethylguanidino)}-NNRPVYIPRPR[Pro(trans-4-F)]PHPRL-OH)
reduction of bacterial growth vs untreated control (E. coli RN31): 70%
fold higher Ki than Api137 [1]: 8 fold
Residual iTT (sfGFP expression relative to no PrAMP) [2]: 28 ± 1.2%
RPA [pre-50S formation] [3]: yes

Ki [4]: 2.6 nM
Compound: Api137 (peptide)

Kd [5]: 244 nM
Compound: 5(6)-carboxyfluorescein-labeled Api137 (peptide)
